{"source": "paper PMC7489219", "about": "(Molecular Brain, 2020)", "note": "Counter-ions that a name gives are not always drawn."}
{"tested_on": "T1, primary mouse cortical neurons", "T1 construct": "primary cortical neurons, DIV 10", "experiment": "cells", "set-up": "Protection from NMDA-induced (30 uM, 10 min) neuronal death; Hoechst nuclear morphology by automated microscopy", "settings": "Cortical neurone, 20 h, read-out: % inhibition, inhibition of NMDA-induced cell death (protection score), 30 min pre-treatment", "how_it_was_run": "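On DIV 10, primary mouse cortical neurons were given compound at 10 μM for 30 min at 37 °C, then 30 μM NMDA for 10 min, washed, and kept 20 h with compound. Dead cells were scored by nuclear morphology, and % protection was derived from survival relative to vehicle + NMDA and untreated controls.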", "units": {"inhibition at 10 µM": "%"}}
{"smiles": "C=CC[N+]1([C@H]2C[C@H]3[C@@H]4CC[C@H]5C[C@H](O)[C@@H](N6CCOCC6)C[C@]5(C)[C@H]4CC[C@]3(C)[C@H]2OC(C)=O)CCCC1", "note": "[Rocuronium bromide]", "inhibition at 10 µM": -0.727}
{"smiles": "COc1cc2c(cc1OC)[C@@H]1Cc3ccc(OC)c(OC)c3CN1CC2", "note": "[Rotundine]", "inhibition at 10 µM": -0.337}
{"smiles": "NC(=O)c1cn(Cc2c(F)cccc2F)nn1", "note": "[Rufinamide (Banzel)]", "inhibition at 10 µM": -3.11}
{"smiles": "O=c1c2ccccc2nc2n1CCc1c-2[nH]c2ccccc12", "note": "[Rutaecarpine (Rutecarpine)]", "inhibition at 10 µM": 5.35}
{"smiles": "C[C@@H]1O[C@@H](OC[C@H]2O[C@@H](Oc3c(-c4ccc(O)c(O)c4)oc4cc(O)cc(O)c4c3=O)[C@H](O)[C@@H](O)[C@@H]2O)[C@H](O)[C@H](O)[C@H]1O", "note": "[Rutin (Rutoside)]", "inhibition at 10 µM": -3.76}
{"smiles": "COc1ccc([C@H]2CNC(=O)C2)cc1OC1CCCC1", "note": "[S-(+)-Rolipram]", "inhibition at 10 µM": -1.23}
{"smiles": "CC(C)(C)NCC(O)c1ccc(O)c(CO)c1", "note": "(centres unmarked) [Salbutamol sulfate (Albuterol)]", "inhibition at 10 µM": -7.52}
{"smiles": "OCc1ccccc1O[C@@H]1O[C@H](CO)[C@@H](O)[C@H](O)[C@H]1O", "note": "[Salicin (Salicoside, Salicine)]", "inhibition at 10 µM": -2.7}
{"smiles": "OC[C@H]1O[C@@H](OCCc2ccc(O)cc2)[C@H](O)[C@@H](O)[C@@H]1O", "note": "[Salidroside (Rhodioloside)]", "inhibition at 10 µM": 11.2}
{"smiles": "C=C[C@](C)(O)CC[C@@H]1[C@@]2(C)CCCC(C)(C)[C@@H]2CC[C@@]1(C)O", "note": "[Sclareol]", "inhibition at 10 µM": 23.8}
{"smiles": "CC1(C)CCC[C@]2(C)[C@H]3CC(=O)O[C@]3(C)CC[C@@H]12", "note": "[Sclareolide (Norambreinolide)]", "inhibition at 10 µM": 28.8}
{"smiles": "CN1[C@@H]2CC(OC(=O)[C@H](CO)c3ccccc3)C[C@H]1[C@@H]1O[C@@H]12", "note": "(some centres unmarked) [Scopolamine hydrobromide]", "inhibition at 10 µM": -0.0258}
{"smiles": "c1cc2c(cc1[C@H]1OC[C@H]3[C@@H]1CO[C@@H]3c1ccc3c(c1)OCO3)OCO2", "note": "[Sesamin (Fagarol)]", "inhibition at 10 µM": 15.7}
{"smiles": "O=C(O)C1=C[C@@H](O)[C@@H](O)[C@H](O)C1", "note": "[Shikimic acid (Shikimate)]", "inhibition at 10 µM": 0.278}
{"smiles": "CCCc1nn(C)c2c(=O)[nH]c(-c3cc(S(=O)(=O)N4CCN(C)CC4)ccc3OCC)nc12", "note": "[Sildenafil citrate]", "inhibition at 10 µM": 4.4}
{"smiles": "COc1cc([C@H]2Oc3cc([C@H]4Oc5cc(O)cc(O)c5C(=O)[C@@H]4O)ccc3O[C@@H]2CO)ccc1O", "note": "[Silibinin (Silybin)]", "inhibition at 10 µM": 8.03}
{"smiles": "COc1cc([C@H]2Oc3ccc([C@H]4Oc5cc(O)cc(O)c5C(=O)[C@@H]4O)cc3O[C@@H]2CO)ccc1O", "note": "[Silymarin (Silybin B)]", "inhibition at 10 µM": 10}
{"smiles": "CCC(C)(C)C(=O)O[C@H]1C[C@@H](C)C=C2C=C[C@H](C)[C@H](CC[C@@H]3C[C@@H](O)CC(=O)O3)[C@H]21", "note": "[Simvastatin (Zocor)]", "inhibition at 10 µM": 2.21}
{"smiles": "O=C(O)C(O)Cc1ccc(O)c(O)c1", "note": "(centres unmarked) [Sodium Danshensu]", "inhibition at 10 µM": 6.44}
{"smiles": "CCCC(=O)O", "note": "[Sodium butyrate]", "inhibition at 10 µM": 0.412}
{"smiles": "O=C1C=CC[C@@H]2[C@H]3CCCN4CCC[C@@H](CN12)[C@@H]34", "note": "[Sophocarpine]", "inhibition at 10 µM": 0.911}
{"smiles": "CNC(=O)c1cc(Oc2ccc(NC(=O)Nc3ccc(Cl)c(C(F)(F)F)c3)cc2)ccn1", "note": "[Sorafenib (Nexavar)]", "inhibition at 10 µM": -5.2}
{"smiles": "OC[C@@H](O)[C@@H](O)[C@H](O)[C@@H](O)CO", "note": "[Sorbitol (Glucitol)]", "inhibition at 10 µM": 3.24}
{"smiles": "CC(C)NCC(O)c1ccc(NS(C)(=O)=O)cc1", "note": "(centres unmarked) [Sotalol (Betapace)]", "inhibition at 10 µM": -6.66}
{"smiles": "CN[C@@H]1[C@H](O)[C@H](NC)[C@H]2O[C@@]3(O)C(=O)C[C@@H](C)O[C@H]3O[C@@H]2[C@H]1O", "note": "[Spectinomycin hydrochloride]", "inhibition at 10 µM": -1.03}
{"smiles": "Cc1cn([C@H]2C=C[C@@H](CO)O2)c(=O)[nH]c1=O", "note": "[Stavudine]", "inhibition at 10 µM": 6.33}
{"smiles": "CC[C@H](/C=C/[C@@H](C)[C@H]1CC[C@H]2[C@@H]3CC=C4C[C@@H](O)CC[C@]4(C)[C@H]3CC[C@]12C)C(C)C", "note": "[Stigmasterol (Stigmasterin)]", "inhibition at 10 µM": 4.26}
{"smiles": "Nc1ccc(S(=O)(=O)Nc2ncccn2)cc1", "note": "[Sulfadiazine]", "inhibition at 10 µM": 17.4}
{"smiles": "COc1cnc(NS(=O)(=O)c2ccc(N)cc2)nc1", "note": "[Sulfameter (Bayrena)]", "inhibition at 10 µM": 28.2}
{"smiles": "Cc1cc(NS(=O)(=O)c2ccc(N)cc2)no1", "note": "[Sulfamethoxazole]", "inhibition at 10 µM": -1.59}
{"smiles": "Nc1ccc(S(N)(=O)=O)cc1", "note": "[Sulfanilamide]", "inhibition at 10 µM": 17.7}
{"smiles": "Cc1noc(NS(=O)(=O)c2ccc(N)cc2)c1C", "note": "[Sulfisoxazole]", "inhibition at 10 µM": -0.221}
{"smiles": "CC1=C(CC(=O)O)c2cc(F)ccc2/C1=C\\c1ccc([S+](C)[O-])cc1", "note": "(centres unmarked) [Sulindac (Clinoril)]", "inhibition at 10 µM": -5.67}
{"smiles": "CNS(=O)(=O)Cc1ccc2[nH]cc(CCN(C)C)c2c1", "note": "[Sumatriptan succinate]", "inhibition at 10 µM": 8.05}
{"smiles": "CCN(CC)CCNC(=O)c1c(C)[nH]c(/C=C2\\C(=O)Nc3ccc(F)cc32)c1C", "note": "[Sunitinib Malate (Sutent)]", "inhibition at 10 µM": 1.4}
{"smiles": "CNCC(O)c1ccc(O)cc1", "note": "(centres unmarked) [Synephrine (Oxedrine)]", "inhibition at 10 µM": 3.83}
{"smiles": "CN1CC(=O)N2[C@H](c3ccc4c(c3)OCO4)c3[nH]c4ccccc4c3C[C@@H]2C1=O", "note": "[Tadalafil (Cialis)]", "inhibition at 10 µM": 0.202}
{"smiles": "CC/C(=C(\\c1ccccc1)c1ccc(OCCN(C)C)cc1)c1ccccc1", "note": "[Tamoxifen Citrate (Nolvadex)]", "inhibition at 10 µM": -8.21}
{"smiles": "COc1ccc(-c2cc(=O)c3c(OC)c(OC)c(OC)c(OC)c3o2)cc1", "note": "[Tangeretin (Tangeritin)]", "inhibition at 10 µM": -0.746}
{"smiles": "Cc1coc2c1C(=O)C(=O)c1c-2ccc2c1CCCC2(C)C", "note": "[Tanshinone IIA (Tanshinone B)]", "inhibition at 10 µM": 3.42}
{"smiles": "Cc1coc2c1C(=O)C(=O)c1c-2ccc2c(C)cccc12", "note": "[Tanshinone I]", "inhibition at 10 µM": -5.27}
{"smiles": "NCCS(=O)(=O)O", "note": "[Taurine]", "inhibition at 10 µM": 8.63}
{"smiles": "O=C1c2c(O)cc(O)cc2O[C@H](c2ccc(O)c(O)c2)[C@H]1O", "note": "[Taxifolin (Dihydroquercetin)]", "inhibition at 10 µM": 12.2}
{"smiles": "CCOC(=O)c1ccc(C#Cc2ccc3c(c2)C(C)(C)CCS3)nc1", "note": "[Tazarotene (Avage)]", "inhibition at 10 µM": 38.1}
{"smiles": "Cc1cn([C@@H]2C[C@@H](O)[C@H](CO)O2)c(=O)[nH]c1=O", "note": "[Telbivudine (Sebivo, Tyzeka)]", "inhibition at 10 µM": 23.8}
{"smiles": "CCCc1nc2c(C)cc(-c3nc4ccccc4n3C)cc2n1Cc1ccc(-c2ccccc2C(=O)O)cc1", "note": "[Telmisartan (Micardis)]", "inhibition at 10 µM": 0.71}
{"smiles": "CO[C@H]1C[C@@H]2CC[C@@H](C)[C@@](O)(O2)C(=O)C(=O)N2CCCC[C@H]2C(=O)O[C@H]([C@H](C)C[C@@H]2CC[C@@H](OC(=O)C(C)(CO)CO)[C@H](OC)C2)CC(=O)[C@H](C)/C=C(\\C)[C@@H](O)[C@@H](OC)C(=O)[C@H](C)C[C@H](C)/C=C/C=C/C=C/1C", "note": "[Temsirolimus (Torisel)]", "inhibition at 10 µM": 1.56}
{"smiles": "COc1cc([C@@H]2c3cc4c(cc3[C@@H](O[C@@H]3O[C@@H]5CO[C@@H](c6cccs6)O[C@H]5[C@H](O)[C@H]3O)[C@H]3COC(=O)[C@H]23)OCO4)cc(OC)c1O", "note": "[Teniposide (Vumon)]", "inhibition at 10 µM": -0.429}
{"smiles": "C[C@H](Cn1cnc2c(N)ncnc21)OCP(=O)(O)O", "note": "[Tenofovir (Viread)]", "inhibition at 10 µM": 8.23}
{"smiles": "CCCCNc1ccc(C(=O)OCCN(C)C)cc1", "note": "[Tetracaine hydrochloride (Pontocaine)]", "inhibition at 10 µM": -0.577}
{"smiles": "COc1ccc2cc1Oc1ccc(cc1)C[C@H]1c3cc(c(OC)cc3CCN1C)Oc1c(OC)c(OC)cc3c1[C@H](C2)N(C)CC3", "note": "[Tetrandrine (Fanchinine)]", "inhibition at 10 µM": 9.82}
{"smiles": "O=C1CCC(N2C(=O)c3ccccc3C2=O)C(=O)N1", "note": "(centres unmarked) [Thalidomide]", "inhibition at 10 µM": -3.3}
{"smiles": "Cn1cnc2c1c(=O)[nH]c(=O)n2C", "note": "[Theobromine (3,7-Dimethylxanthine)]", "inhibition at 10 µM": 0.993}
{"smiles": "Nc1nc2[nH]cnc2c(=S)[nH]1", "note": "[Thioguanine]", "inhibition at 10 µM": 13}
{"smiles": "O=c1oc2cc(O)ccc2s1", "note": "[Tioxolone]", "inhibition at 10 µM": -0.329}
{"smiles": "Cc1ccc(O)c([C@H](CCN(C(C)C)C(C)C)c2ccccc2)c1", "note": "[Tolterodine tartrate (Detrol LA)]", "inhibition at 10 µM": -2.31}
{"smiles": "CC1(C)O[C@@H]2[C@@H](CO[C@@]3(COS(N)(=O)=O)OC(C)(C)O[C@@H]23)O1", "note": "[Topiramate]", "inhibition at 10 µM": 11.4}
{"smiles": "CC[C@@]1(O)C(=O)OCc2c1cc1n(c2=O)Cc2cc3c(CN(C)C)c(O)ccc3nc2-1", "note": "[Topotecan HCl]", "inhibition at 10 µM": -1.54}
{"smiles": "CN(C)CCOc1ccc(/C(=C(/CCCl)c2ccccc2)c2ccccc2)cc1", "note": "[Toremifene Citrate (Fareston, Acapodene)]", "inhibition at 10 µM": -2.81}
{"smiles": "Cc1cccc(Nc2ccncc2S(=O)(=O)NC(=O)NC(C)C)c1", "note": "[Torsemide (Demadex)]", "inhibition at 10 µM": 22}
{"smiles": "COc1ccc(/C=C/C(=O)Nc2ccccc2C(=O)O)cc1OC", "note": "[Tranilast (SB 252218)]", "inhibition at 10 µM": -11.4}
{"smiles": "O=c1n(CCCN2CCN(c3cccc(Cl)c3)CC2)nc2ccccn12", "note": "[Trazodone hydrochloride (Desyrel)]", "inhibition at 10 µM": -1.4}
{"smiles": "CC1=C(/C=C/C(C)=C/C=C/C(C)=C/C(=O)O)C(C)(C)CCC1", "note": "[Tretinoin (Aberela)]", "inhibition at 10 µM": -38.4}
{"smiles": "C[C@]12C=CC(=O)C=C1CC[C@H]1[C@@H]3C[C@@H](O)[C@](O)(C(=O)CO)[C@@]3(C)C[C@H](O)[C@@]12F", "note": "[Triamcinolone (Aristocort)]", "inhibition at 10 µM": 16.3}
{"smiles": "CC1(C)O[C@@H]2C[C@H]3[C@@H]4CCC5=CC(=O)C=C[C@]5(C)[C@@]4(F)[C@@H](O)C[C@]3(C)[C@]2(C(=O)CO)O1", "note": "[Triamcinolone acetonide]", "inhibition at 10 µM": 59.8}
{"smiles": "O=c1[nH]c(=O)n([C@H]2C[C@H](O)[C@@H](CO)O2)cc1C(F)(F)F", "note": "[Trifluridine (Viroptic)]", "inhibition at 10 µM": 9.42}
{"smiles": "C[C@]12CC[C@H]3[C@@H](CC[C@@]45O[C@@H]4C(O)=C(C#N)C[C@]35C)[C@@H]1CC[C@@H]2O", "note": "[Trilostane]", "inhibition at 10 µM": 4.15}
{"smiles": "CC(C)[C@]12O[C@H]1[C@@H]1O[C@]13[C@]1(O[C@H]1C[C@H]1C4=C(CC[C@@]13C)C(=O)OC4)[C@@H]2O", "note": "[Triptolide]", "inhibition at 10 µM": -1.79}
